Test results reported in patent publication US20110313004A1, “DEUTERATED PYRIDINONES” (CONCERT PHARMACEUTICALS, INC., priority 2008, published 2011).

test: Storage stability of the isolated compound at about −20° C.; format: physicochemical; settings: storage for approximately 2 weeks at about −20° C.
From the text: Compound 139 was synthesized in the same manner as Compound 151 with the exception that 4-fluoro-2,3,5,6-d4-aniline (98% atom % D, CDN Isotopes) was used in place of D p-toluidine-d9 in step 1. ^1H NMR (CDCl3): δ 7.44 (dd, J=2.5, 9.6, 1H), 7.31 (d, J=2.5, 1H), 6.67 (d, J=9.3, 1H). MS (M+H): 226.1.
Compound 161 was synthesized in the same manner as Compound 101 (Example 1, Scheme 6, steps 1-3), except that 4-chloro-2,3,5,6-d4-aniline (98% atom % D, CDN Isotopes) was used in place of aniline in step 1. MS (M+H): 242.1.
A solution of (ethyl carbonic) 1-(4-(methoxy-d3)phenyl-d4)-6-oxo-1,6-dihydropyridine-3-carboxylic anhydride 27 (464 mg, approximately. 1.43 mmol) in THF (14.8 mL) was cooled to 10° C. and NaBD4 (98 atom % D, Cambridge Isotopes Laboratories) (295 mg, 7.01 mmol) was added. To the resulting slurry was added MeOD (1.42 mL) via syringe pump at a rate of 0.015 mL/min. Upon completion, the reaction was diluted with MeOD and concentrated nearly to dryness on a rotary evaporator. This process was repeated twice. The resulting solid was suspended in CH2Cl2, silica gel was added, the slurry concentrated to dryness in vacuo, and the resulting solid was added to the top of a silica gel column. Purification via column chromatography on an ISCO instrument (0 to 10% MeOH in CH2Cl2) provided impure final product. A further purification by ISCO (50 to 100% EtOAc in hexanes) followed by a preparatory HPLC purification afforded 116 mg of the final product 156 in approximately 85% purity. ^1H NMR (CDCl3): δ 7.43 (dd, J=2.7, 9.5, 1H), 7.31 (dd, J=0.6, 2.5, 1H), 6.66 (dd, J=0.6, 9.5, 1H). MS (M+H): 241.1.

Row | SMILES | condition of compound after storage
1 | [2H]c1c([2H])c(-n2cc(C([2H])([2H])O)ccc2=O)c([2H])c([2H])c1F [Compound 139, 1-(4-Fluorophenyl-d4)-5-(hydroxy(methyl-d2))pyridin-2(1H)-one] | decomposed
2 | [2H]c1c([2H])c(-n2cc(C([2H])([2H])O)ccc2=O)c([2H])c([2H])c1OC([2H])([2H])[2H] [Compound 156, 5-(Hydroxyl(methyl-d2))-1-(4-(methoxy-d3)phenyl-d4)pyridin-2(1H)-one] | decomposed
3 | [2H]c1c([2H])c(-n2cc(C([2H])([2H])O)ccc2=O)c([2H])c([2H])c1Cl [Compound 161, 1-(4-Chlorophenyl-d4)-5-(hydroxy(methyl-d2))-pyridin-2(1H)-one] | decomposed
